Measured values published in PMC11714206, “Massively Parallel Screening of Toll/Interleukin‐1 Receptor (TIR)‐Derived Peptides Reveals Multiple Toll‐Like Receptors (TLRs)‐Targeting Immunomodulatory Peptides” (Advanced Science, 2024).
One block for each sequence: values may come before it.

Target: T1, MyD88^TIR (Homo sapiens, UniProt Q99836)
T1 construct: MyD88 (residues 148–296); 6xHis; made in house; host or cells: E. coli BL21 (DE3)
Experiment: T‐Surf phage library (P8 and P3) selection against MyD88^TIR, four rounds, NGS read counts
Assay type: binding
Settings: for P8_MyD88 Rank (after) / P8_MyD88 Rank (before): P8 library; for Population: 4th round of selection against MyD88 TIR, share of NGS reads; for P3_MyD88 Rank (after) / P3_MyD88 Rank (before): P3 library
Protocol: T‐Surf libraries were screened against the immobilized TIR domains of two major human TLR adaptor proteins, MAL^TIR and MyD88^TIR, allowing cross‐species selection of TIR‐binding motifs with 190 946 TIR‐derived peptides in a single binding assay (Scheme 1). Enriched phage pools from the fourth round of selection were analyzed using NGS after barcoding the peptide‐coding regions of the phage pools.
Phage display screening was performed by coating two wells of a 96‐well plate (Maxisorp, Thermo Fisher Scientific) with 100 µL of 5 µg mL^−1 TIR domains overnight; then, the coated wells were blocked with 200 µL of blocking buffer (0.2% BSA in PBS) and set aside for 1 h at 4 °C with gentle shaking. Next, 100 µL of the phage library was added to the wells and incubated for 1 h at room temperature (RT; 20 – 22 °C) with gentle shaking. The plate was washed four times with PBS containing 0.5% Tween‐20; the bound phages were eluted by adding 100 µL of 100 mM HCl to each well. The elute was neutralized with 10 µL of 1.0 M Tris‐HCl (pH 11.0). E. coli TG1 cells were grown to the log phase (A600 = ≈0.6), and 1 mL of the culture was incubated with 100 µL of the eluted phages for 30 min at 37 °C, with shaking at 200 rpm. Next, 1 µL of M13KO7 helper phages was added, followed by incubation for 45 min at 37 °C, with shaking. Subsequently, the cells were transferred to 25 mL of 2× yeast extract tryptone/carbenicillin/kanamycin medium and incubated overnight at 37 °C with shaking at 200 rpm. The amplified phages were precipitated with 20% PEG‐8000/2.5 M NaCl to be used for the next round of selection.
The naïve T‐Surf libraries in P8 and P3 and the enriched phage pools after four rounds were barcoded for NGS as previously described.^[ [59] ^] Briefly, 5 µL of the phage pool was used as a template for 20 cycles of a 50 µL PCR reaction using […] each of forward and reverse barcoded primers and PrimeSTAR Max DNA Polymerase. The PCR products were purified using Expin Gel SV (GeneAll). The NGS samples were quantified using qPCR, following the qPCR Quantification Protocol Guide (KAPA Library Quantification kits for Illumina Sequencing Platform), and qualified using the TapeStation High Sensitivity D1000 ScreenTape (Agilent Technologies). The indexed libraries were further sequenced by Macrogen (Seoul, Republic of Korea) using the NovaSeq platform (Illumina) with 100 bp paired‐end reads. The reads were demultiplexed by barcodes and filtered for an average Phred quality score of at least 30, followed by trimming the flanking consensus sequences using Cutadapt (version 2.3). Peptide sequence populations were analyzed according to the read counts.

[1] = P8_MyD88: rank by NGS read count after grouping
[2] = P8_MyD88: rank by NGS read count before grouping
[3] = selection against MyD88, rank after grouping
[4] = selection against MyD88, rank before grouping
[5] = P8_MyD88: rank by count after grouping
[6] = P8_MyD88: rank by count before grouping
[7] = P8_MyD88 pool: P8 T-Surf phage library
[8] = selection against MyD88 TIR, rank by count after grouping
[9] = selection against MyD88 TIR, rank by count before grouping
[10] = P3_MyD88: rank by count after grouping
[11] = P3_MyD88: rank by count before grouping
[12] = 4R selection against MyD88, rank after grouping
[13] = 4R selection against MyD88, rank before grouping
[14] = selection against MyD88, rank by count after grouping
[15] = selection against MyD88, rank by count before grouping

T1 sequence (Q99836 148-296): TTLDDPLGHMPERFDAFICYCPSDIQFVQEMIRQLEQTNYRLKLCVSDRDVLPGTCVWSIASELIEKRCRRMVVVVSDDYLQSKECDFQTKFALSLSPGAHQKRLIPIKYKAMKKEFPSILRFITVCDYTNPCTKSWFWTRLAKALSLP

Sequence: DPQDLDWFYKRLVSLL
Rank (after) [5]: 121
Rank (before) [6]: 724

Sequence: YTALTNSSFHTFLDND
P3_MyD88 Rank (after) [8]: 219
P3_MyD88 Rank (before) [9]: 1696

Sequence: WPQDPQDLGWFYERLE
Rank (after) [5]: 416
Rank (before) [6]: 899

Sequence: YYDSRWALDELLKIL
P8_MyD88 Rank (after) [3]: 484
P8_MyD88 Rank (before) [4]: 1678

Sequence: DPQALAWFYERLVSLF
P8_MyD88 Rank (after) [8]: 256
P8_MyD88 Rank (before) [9]: 2682

Sequence: RSSAFQQQLVMALKAQ
P3_MyD88 Rank (after) [12]: 643
P3_MyD88 Rank (before) [13]: 2616

Sequence: YAFTCHLQRYLVQRGV
Rank (after) [10]: 118
Rank (before) [11]: 1545

Sequence: DPQDLDWFYEHLVSLL
Rank (after) [5]: 114
Rank (before) [6]: 570

Sequence: EWIREQLCLALKERLP
P3_MyD88 Rank (after) [12]: 637
P3_MyD88 Rank (before) [13]: 2133

Sequence: NQWRNALTAAANLA
Population (P3_MyD88 pool: P3 T-Surf phage library): 0.00291%

Sequence: KFFLFFMILAFSMNR
P8_MyD88 Rank (after) [3]: 487
P8_MyD88 Rank (before) [4]: 3892

Sequence: DPQNLQWFYERLVILI
Rank (after) [5]: 392
Rank (before) [6]: 3031

Sequence: YLKWGYVVLGSSAFC
P3_MyD88 Rank (after) [14]: 714
P3_MyD88 Rank (before) [15]: 1574

Sequence: WALDELLQILHACEPF
P8_MyD88 Rank (after) [3]: 524
P8_MyD88 Rank (before) [4]: 1441

Sequence: LGYHWLDWEYFVSIED
Rank (after) [5]: 451
Rank (before) [6]: 3240

Sequence: QYSDTLLEHTSKFPA
P3_MyD88 Rank (after) [3]: 492
P3_MyD88 Rank (before) [4]: 2837

Sequence: NGHESEIITVIVDTIV
P3_MyD88 Rank (after) [8]: 221
P3_MyD88 Rank (before) [9]: 3351

Sequence: YLKWGYPRFWDRLRFV
P3_MyD88 Rank (after) [14]: 729
P3_MyD88 Rank (before) [15]: 1603

Sequence: YASYDDNDYYWVTHVLLRHM
Population [7]: 0.00732%

Sequence: SSFREGLWRLLELSET
Rank (after) [10]: 145
Rank (before) [11]: 1199

Sequence: WALDELLKILDAKETM
Population [7]: 0.0116%

Sequence: SSCREGLWRLLELSNK
Rank (after) [10]: 402
Rank (before) [11]: 3260

Sequence: SSICEGLWRLLELSKK
Rank (after) [10]: 453
Rank (before) [11]: 3276

Sequence: PQEREWFYERLVSLIL
Rank (after) [1]: 991
Rank (before) [2]: 3499

Sequence: LKVESWHQAREKAGKL
Rank (after) [10]: 400
Rank (before) [11]: 2518

Sequence: NYADSSWALDELLAIM
Rank (after) [5]: 164
Rank (before) [6]: 184
Population [7]: 0.00732%

Sequence: DWVWDYLLPDLLGPAG
P8_MyD88 Rank (after) [14]: 700
P8_MyD88 Rank (before) [15]: 2416

Sequence: EWVKNSLLQYLDSQFE
Rank (after) [5]: 151
Rank (before) [6]: 166
Population [7]: 0.00886%

Sequence: GLSWVRMNGGWACMM
Rank (after) [1]: 922
Rank (before) [2]: 2287

Sequence: IVQEQDGFWVRLIEAL
P8_MyD88 Rank (after) [12]: 616
P8_MyD88 Rank (before) [13]: 3611

Sequence: DTILEKVQSIAPELLR
Rank (after) [10]: 401
Rank (before) [11]: 2092

Sequence: YTALNNSGFNTFRDND
Rank (after) [10]: 188
Rank (before) [11]: 1704

Sequence: YSFTGQLHRYMVQRGV
P3_MyD88 Rank (after) [12]: 649
P3_MyD88 Rank (before) [13]: 1434

Sequence: ELDFSHFWLFDAGGEA
Population [7]: 0.0154%

Sequence: PQDRERFFERLFSLF
Rank (after) [1]: 998
Rank (before) [2]: 3490

Sequence: DPMVAEWVLNHLRFEL
P8_MyD88 Rank (after) [8]: 193
P8_MyD88 Rank (before) [9]: 246

Sequence: YKLALHFRDWLVGVH
Rank (after) [1]: 901
Rank (before) [2]: 2137

Sequence: DPQDLDWFYETSGEPD
Rank (after) [1]: 911
Rank (before) [2]: 2804

Sequence: YFRNESEFIQEIVQWV
Rank (after) [5]: 118
Rank (before) [6]: 125
Population [7]: 0.0162%

Sequence: DPQELDWFYELLVSPF
P8_MyD88 Rank (after) [14]: 689
P8_MyD88 Rank (before) [15]: 2982

Sequence: WFLFTVRSAIYAMSPA
Rank (after) [1]: 921
Rank (before) [2]: 1358

Sequence: SEIYATSPWALDVLVL
P3_MyD88 Rank (after) [3]: 508
P3_MyD88 Rank (before) [4]: 2953

Sequence: SENYATSPWALEKAGKL
Rank (after) [10]: 423
Rank (before) [11]: 2984

Sequence: YELDFSHFWLFDAGGDA
P8_MyD88 Rank (after) [8]: 265
P8_MyD88 Rank (before) [9]: 537

Now from value to sequence:

Rank (after) [1]: 916
Rank (before) [2]: 2845
Sequence: DPQDLECFYERRVSLF

P8_MyD88 Rank (after) [3]: 577
P8_MyD88 Rank (before) [4]: 1451
Sequence: WALDELLQILHAREL

Population [7]: 0.0131%
Sequence: DPQDLDWFYERLVILF

Rank (after) [1]: 910
Rank (before) [2]: 1573
Sequence: WDFGTAGKNPGSAWHH

P3_MyD88 Rank (after) [8]: 251
P3_MyD88 Rank (before) [9]: 1559
Sequence: YLQWGYPCFWDRLRFA

P3_MyD88 Rank (after) [8]: 231
P3_MyD88 Rank (before) [9]: 1895
Sequence: AVDNETDKIQTPLKNE

Rank (after) [10]: 441
Rank (before) [11]: 2377
Sequence: LSRVPGVHDFRGLVDI

Rank (after) [1]: 995
Rank (before) [2]: 2450
Sequence: DWVWDYLLQILHARELF

P3_MyD88 Rank (after) [8]: 243
P3_MyD88 Rank (before) [9]: 1232
Sequence: NGHESEIIKEIVDTFM

Rank (after) [10]: 185
Rank (before) [11]: 972
Sequence: DTKLKKGESIAPELVL

P8_MyD88 Rank (after) [8]: 276
P8_MyD88 Rank (before) [9]: 1965
Sequence: YLLLGVFQTIFARRTA

P8_MyD88 Rank (after) [14]: 772
P8_MyD88 Rank (before) [15]: 1576
Sequence: WDFAGNWEQFWDRLSY

Rank (after) [10]: 465
Rank (before) [11]: 1859
Sequence: GSFRESLWRLLELSKK

P3_MyD88 Rank (after) [12]: 582
P3_MyD88 Rank (before) [13]: 3135
Sequence: SSFRDDLWRLLELSKK

P3_MyD88 Rank (after) [8]: 264
P3_MyD88 Rank (before) [9]: 2209
Sequence: ERLFIETQNVNKDLIG

Rank (after) [5]: 477
Rank (before) [6]: 1960
Sequence: YLEWPLDENQQLIFWF

P8_MyD88 Rank (after) [14]: 703
P8_MyD88 Rank (before) [15]: 2275
Sequence: GWAWDYLLPNLEGPAG

Rank (after) [5]: 109
Rank (before) [6]: 115
Population [7]: 0.02%
Sequence: WALQELVKILQAKIFL

Rank (after) [5]: 481
Rank (before) [6]: 3737
Sequence: SAAYDDIWERLNRMIE

P8_MyD88 Rank (after) [12]: 584
P8_MyD88 Rank (before) [13]: 2674
Sequence: DPQGHAWTYERHLSVF

P8_MyD88 Rank (after) [8]: 259
P8_MyD88 Rank (before) [9]: 2853
Sequence: DPQDLEWFYERPVSLF

Rank (after) [1]: 899
Rank (before) [2]: 2077
Sequence: YLRRSVFQTMLARRTE

Population [7]: 0.0112%
Sequence: DPQDLEWFYERLVSLF

Population [7]: 0.00617%
Sequence: DPQDLAWFYERLVSLF

Rank (after) [1]: 883
Rank (before) [2]: 2135
Sequence: YKLALHFRVWRVGVSI

Rank (after) [1]: 926
Rank (before) [2]: 2666
Sequence: DPQGLDWYYVRLVSLL

P8_MyD88 Rank (after) [14]: 732
P8_MyD88 Rank (before) [15]: 2830
Sequence: DPQDLDWIYERLVCLF

P3_MyD88 Rank (after) [8]: 267
P3_MyD88 Rank (before) [9]: 1950
Sequence: ALLKKLDSGFSEEKLL

P8_MyD88 Rank (after) [3]: 528
P8_MyD88 Rank (before) [4]: 3837
Sequence: NYAASEWALRELIQIM

P8_MyD88 Rank (after) [8]: 251
P8_MyD88 Rank (before) [9]: 2727
Sequence: DPQDLALFYERLVSLF

P8_MyD88 Rank (after) [12]: 675
P8_MyD88 Rank (before) [13]: 1642
Sequence: WDYASNMEQFWDPLYY

Rank (after) [1]: 1003
Rank (before) [2]: 3187
Sequence: ELDFSHFWLFDGHATGAA

Rank (after) [1]: 876
Rank (before) [2]: 1349
Sequence: CARDELLQILHARELF

P8_MyD88 Rank (after) [12]: 596
P8_MyD88 Rank (before) [13]: 2212
Sequence: VQCGDPWCWEKLAYAM

P3_MyD88 Rank (after) [8]: 242
P3_MyD88 Rank (before) [9]: 924
Sequence: AVDKETDKIQTAEKC

P8_MyD88 Rank (after) [8]: 211
P8_MyD88 Rank (before) [9]: 326
Sequence: LKVESWRQALEKAGKL

Rank (after) [10]: 478
Rank (before) [11]: 3124
Sequence: SSFLQKLRRRLELSIV

P8_MyD88 Rank (after) [12]: 631
P8_MyD88 Rank (before) [13]: 1426
Sequence: WALDELWHILRALGLF

Population [7]: 0.00925%
Sequence: DPQDLDWFYERLVNLF

Rank (after) [5]: 417
Rank (before) [6]: 1009
Sequence: VQWDDPWFWDKLAYA
